Measured values from US11173154B2 (priority 2015, dated 2021).
Read-outs that look alike come from different tables or passages of the source.

What was measured:
[1] = test system: RNAPII and Top1 at transcriptional start sites; format: cell-based; conditions: A549, PR8ΔNS1
[2] = test system: A549 cells
[3] = test system: C57BL/6J mice; experiment: LPS-induced septic shock model; format: in vivo, mouse; conditions: LPS 10 mg/kg i.p., CPT 30 mg/kg 30 minutes before and one hour after LPS
[4] = test system: spleen of C57BL/6J mice; conditions: LPS+CPT, 90 minutes after LPS
[5] = test system: GM-CSF, IL-1β, IL-6 and TNFα in mouse serum; experiment: Serum cytokines 4 hours after LPS injection; format: in vivo; conditions: mice
[6] = test system: C57BL/6J mice; experiment: Cecal ligation puncture (CLP) model; conditions: CPT 30 mg/kg i.v. 6 hours and twice at day 2, 60 mg/kg i.p. day 3 post-surgery
[7] = test system: Legionella pneumophila serogroup 1; conditions: guinea pig, in vivo

SMILES | RNAPII at PAMP-induced genes [1] | concentration at which DNA damage was detectable, relative to the concentration selected ([2]; human) [times higher] | survival in lethal endotoxic (septic) shock [3] | cell death in vivo (Live/Dead dye, spleen) [4] | inflammatory gene transcription in vivo (spleen) [4] | pro-inflammatory genes and cytokine expression (serum titers) [5] | survival following CLP [6] | DNA damage (H2AX staining) at the concentration used ([2]; A549, 0.5 μM CPT, 100 nM TPT, 6 hours p.i.) | concentration at which DNA damage was detectable, relative to the concentration selected ([2]; A549, selected 0.5 μM CPT, 100 nM TPT) [times higher] | survival rates [7] | time to death relative to the control group [7]
CC[C@@]1(O)C(=O)OCc2c1cc1n(c2=O)Cc2cc3c(CN(C)C)c(O)ccc3nc2-1 [TPT, Topotecan] | suppress | 100 |  |  |  |  |  |  |  |  | 
CC[C@@]1(O)C(=O)OCc2c1cc1n(c2=O)Cc2cc3ccccc3nc2-1 [CPT, Camptothecin] | suppress |  | rescued animals from lethal endotoxic shock | without inducing cell death | inhibits | suppression | improved survival | neither TPT- nor CPT-treated cells displayed DNA damage | 20 | improved survival rates | delay of death
